A short description of data set [1]: Induction of osteogenesis in mouse calvarial cells assessed as increase in total bone area at 10 nM. Format: functional, Calvarial cell.
The target in the next data set is Cathepsin K (Rattus norvegicus, UniProt O35186). Put plainly: Inhibition of rat cathepsin K.
Data set [2] can be described thus: Selectivity for cathepsin K over cathepsin L.
A short description of data set [3]: Selectivity for cathepsin K over cathepsin B.
A short description of data set [4]: Cmax in rat at 50 mg/kg, po. Type of data set: ADME, organism-based. Also noted: dose 50 mg/kg, route oral. The following applies: in vivo.
Data set [5] in a line: Selectivity for cathepsin K over cathepsin S.
A short description of data set [6]: AUC in rat at 50 mg/kg, po. Also noted: dose 50 mg/kg, route oral. The following applies: plasma. Type of data set: ADME, organism-based.
The nature of data set [7]: Bioavailability in rat. Type of data set: ADME, organism-based. The following applies: in vivo.
Data set [8] relates to Homo sapiens. Briefly: Antiosteoporotic activity in patient with osteoporosis assessed as increase in lumbar spine bone mineral density at 50 mg/kg, po administered weekly for 24 months relative to placebo control. Format: functional.
Data set [9] in a line: Selectivity for cathepsin K over cathepsin F.
Data set [10] in a line: Selectivity for cathepsin K over cathepsin V.
For data set [11], the system named is Homo sapiens. Briefly: Antiosteoporotic activity in patient with osteoporosis assessed as increase in hip bone mineral density at 50 mg/kg, po administered weekly for 24 months relative to placebo control. Type of data set: functional, Bone of hip region.
Data set [12] is described as follows: Selectivity for cathepsin K over cathepsin H.
Data set [13] is described as follows: Bioavailability in dog. Type of data set: ADME, organism-based, Canis lupus familiaris. The note with it: in vivo.
Another data set concerns Osteoclast. Briefly: Inhibition of bone resorption in human osteoclast assessed as decrease in CTX-1 level at 100 uM. Format: functional.
Data set [14] addresses Prostaglandin E2 receptor EP4 subtype (Mus musculus, UniProt P32240). Put plainly: Agonist activity at mouse EP4 receptor expressed in CHO cells assessed as cAMP production. Format: functional, cell-based. In general terms: Cyclic AMP is a second messenger, typically raised through Gs and lowered through Gi signalling.
The test system of the next data set is Mus musculus. Briefly: Induction of bone formation in mouse assessed as increase in bone mineral content at 300 ug/kg administered into dorsal muscle pouch relative to control. Type of data set: functional, Muscle tissue.
The target in data set [15] is Prostaglandin E2 receptor EP3 subtype (Mus musculus, UniProt P30557). Put plainly: Binding affinity to mouse EP3 receptor by competitive binding assay.
Data set [16] concerns Rattus norvegicus. Put plainly: Induction of bone formation in ovariectomized rat assessed as trabecular bone mineral content at 3 ug/kg, sc BID for 11 weeks (RVb = 200 mg/cm3). Format: functional, Trabecula.
The target in data set [17] is Extracellular calcium-sensing receptor (Bos taurus, UniProt P35384). Briefly: Inhibition of CaSR in bovine parathyroid cells assessed as increase in PTH level. Type of data set: cell-based.
The next data set has as its system Rhesus monkey. Briefly: Antiosteoporotic activity in rhesus monkey assessed as decrease in bone resorption-associated urinary NTX-1 level at 15 mg/kg QD for 14 days. Type of data set: functional, Macaca mulatta, Urine. Also noted: scale not given: the % may be the effect or the level left.
For data set [18], the system named is Homo sapiens. Briefly: Antiosteoporotic activity in postmenopausal woman with osteoporosis assessed as increase in lumbar spine bone mineral density at 200 mg/kg BID for 12 months. Type of data set: functional.
A short description of data set [19]: Selectivity for integrin alphaVbeta3 over integrin alphaVbeta5.
Data set [20] relates to Rattus norvegicus. Briefly: Antiosteoporotic activity in rat assessed as increase in distal femoral metaphysis bone mineral density at 30 mg/kg BID for 28 days relative to control. Format: functional.
Data set [21] is described as follows: Clearance in po dosed dog. Format: ADME, organism-based, Canis lupus familiaris. The following applies: in vivo.
A short description of data set [22]: Clearance in po dosed rat. Type of data set: ADME, organism-based. The following applies: in vivo.
Data set [23] has as its system Homo sapiens. Briefly: Antiosteoporotic activity in postmenopausal woman with osteoporosis assessed as increase in femoral neck bone mineral density at 200 mg/kg BID for 12 months. Format: functional.
Data set [24] concerns Homo sapiens. Put plainly: Antiosteoporotic activity in postmenopausal woman with osteoporosis assessed as increase in hip bone mineral density at 200 mg/kg BID for 12 months. Type of data set: functional, Bone of hip region.
Data set [25] is filed under the species Homo sapiens. Put plainly: Plasma protein binding in human. The note with it: read-out: PPB (converted).
Data set [26] concerns Rattus norvegicus. Put plainly: Antiosteoporotic activity in rat assessed as increase in distal femoral metaphysis bone mineral density at 10 mg/kg BID for 28 days relative to control. Format: functional.
Data set [27] in a line: Half life in po dosed rat. Type of data set: ADME, organism-based. The following applies: in vivo.
The subject of data set [28] is MC3T3-E1. Put plainly: Increase in octeocalcin mRNA expression in mouse MC3T3-E1 cells at 30 uM relative to control. Type of data set: functional.
For data set [29], the system named is MC3T3-E1. Briefly: Increase in ALP mRNA expression in mouse MC3T3-E1 cells at 30 uM relative to control. Type of data set: functional.

Prostaglandin E2 receptor EP3 subtype, sequence (P30557 whole entry): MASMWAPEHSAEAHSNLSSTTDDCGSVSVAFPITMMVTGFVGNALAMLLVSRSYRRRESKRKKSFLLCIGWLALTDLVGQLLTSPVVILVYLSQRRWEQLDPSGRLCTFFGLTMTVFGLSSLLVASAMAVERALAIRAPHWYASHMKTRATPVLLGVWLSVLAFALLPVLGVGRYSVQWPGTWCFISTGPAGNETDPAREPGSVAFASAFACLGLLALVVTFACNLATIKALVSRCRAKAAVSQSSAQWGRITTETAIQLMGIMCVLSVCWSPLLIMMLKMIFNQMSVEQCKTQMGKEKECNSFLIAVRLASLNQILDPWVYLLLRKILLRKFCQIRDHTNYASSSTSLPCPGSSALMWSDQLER
Prostaglandin E2 receptor EP4 subtype, sequence (P32240 whole entry): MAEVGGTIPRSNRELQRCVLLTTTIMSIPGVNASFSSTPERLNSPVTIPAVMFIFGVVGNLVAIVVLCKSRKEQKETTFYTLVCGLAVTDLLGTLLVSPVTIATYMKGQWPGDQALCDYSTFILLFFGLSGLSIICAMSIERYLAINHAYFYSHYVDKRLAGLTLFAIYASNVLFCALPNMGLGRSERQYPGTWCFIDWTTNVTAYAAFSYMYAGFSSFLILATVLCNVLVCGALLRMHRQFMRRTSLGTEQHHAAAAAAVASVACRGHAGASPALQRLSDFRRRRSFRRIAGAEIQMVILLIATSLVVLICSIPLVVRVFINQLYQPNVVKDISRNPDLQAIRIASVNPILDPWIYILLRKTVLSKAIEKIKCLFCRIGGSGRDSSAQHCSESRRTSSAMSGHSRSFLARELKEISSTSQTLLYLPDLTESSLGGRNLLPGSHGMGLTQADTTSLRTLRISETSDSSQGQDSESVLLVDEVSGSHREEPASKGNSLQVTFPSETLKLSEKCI
Cathepsin K, sequence (O35186 whole entry): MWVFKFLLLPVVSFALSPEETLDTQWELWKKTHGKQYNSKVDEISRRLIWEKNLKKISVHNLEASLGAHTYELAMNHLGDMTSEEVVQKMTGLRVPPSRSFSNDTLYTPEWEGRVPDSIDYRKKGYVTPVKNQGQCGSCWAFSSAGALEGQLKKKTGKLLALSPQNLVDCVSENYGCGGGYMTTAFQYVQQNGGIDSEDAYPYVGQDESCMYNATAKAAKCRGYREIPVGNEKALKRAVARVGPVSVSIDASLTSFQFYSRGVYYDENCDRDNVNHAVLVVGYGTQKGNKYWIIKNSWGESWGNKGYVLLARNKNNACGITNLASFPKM
Extracellular calcium-sensing receptor, sequence (P35384 whole entry): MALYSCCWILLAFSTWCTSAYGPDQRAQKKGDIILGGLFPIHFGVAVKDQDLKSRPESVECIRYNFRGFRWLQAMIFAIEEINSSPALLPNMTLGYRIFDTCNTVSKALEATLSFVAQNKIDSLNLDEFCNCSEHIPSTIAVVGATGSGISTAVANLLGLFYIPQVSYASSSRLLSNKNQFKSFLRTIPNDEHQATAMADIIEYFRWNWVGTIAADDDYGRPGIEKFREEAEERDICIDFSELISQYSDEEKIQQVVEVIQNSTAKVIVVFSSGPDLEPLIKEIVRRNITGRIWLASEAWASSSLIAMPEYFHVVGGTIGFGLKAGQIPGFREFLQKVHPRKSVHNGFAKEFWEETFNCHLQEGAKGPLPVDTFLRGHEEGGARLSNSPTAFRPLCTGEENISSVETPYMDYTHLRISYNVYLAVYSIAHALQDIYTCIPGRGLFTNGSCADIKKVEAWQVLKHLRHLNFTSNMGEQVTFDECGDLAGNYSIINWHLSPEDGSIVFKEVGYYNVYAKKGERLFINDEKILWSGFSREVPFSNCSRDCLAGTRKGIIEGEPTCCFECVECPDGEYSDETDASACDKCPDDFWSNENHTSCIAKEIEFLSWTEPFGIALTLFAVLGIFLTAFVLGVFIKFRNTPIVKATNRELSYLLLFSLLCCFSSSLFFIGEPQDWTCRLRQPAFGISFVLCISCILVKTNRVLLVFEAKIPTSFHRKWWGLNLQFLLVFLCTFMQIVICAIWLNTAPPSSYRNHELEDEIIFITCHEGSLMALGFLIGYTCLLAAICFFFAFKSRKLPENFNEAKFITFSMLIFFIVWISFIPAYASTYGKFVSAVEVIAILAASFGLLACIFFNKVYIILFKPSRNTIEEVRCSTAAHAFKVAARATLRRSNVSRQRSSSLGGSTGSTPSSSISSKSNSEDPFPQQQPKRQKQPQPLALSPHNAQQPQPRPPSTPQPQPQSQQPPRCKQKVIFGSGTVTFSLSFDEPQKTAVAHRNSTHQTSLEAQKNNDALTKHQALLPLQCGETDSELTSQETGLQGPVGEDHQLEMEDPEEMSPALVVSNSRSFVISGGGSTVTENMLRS

With `O=S(=O)(NC1CCNCC1)c1cc(S(=O)(=O)c2ccccc2)ccc1C(F)(F)F`, in [1], the Activity was determined as 60%.
`CC[C@@H](CNc1ccc(OCC(=O)O)cc1)NC(=O)C1(Nc2cccc(-c3ccccc3)c2)CCCCC1` showed an IC50 against Cathepsin K of 58 nM. For the same compound, the Selectivity ratio is greater than 4170 in data set [2], greater than 4170 in data set [3] and 2080 in data set [5]. The compound further yielded a Cmax in [4] of 9200 ng/mL. The same compound registered an AUC in [6] of 104 µg·h/mL.
For the compound `CC(C)(F)C[C@H](N[C@@H](c1ccc(-c2ccc(S(C)(=O)=O)cc2)cc1)C(F)(F)F)C(=O)NC1(C#N)CC1` [ODANACATIB], the bioavailability in data set [7] was no more than 38%; in data set [13], no more than 100%. For the same compound, the Activity is reported as 5.5% in the data set with Homo sapiens [8] and 3.2% in the data set with Homo sapiens [11]. For the same compound, the Selectivity ratio in [9] was 3980; in data set [2], 15000; in [3], 5170; in data set [10], 3810; in data set [5], 300; in data set [12] it was greater than 50000.
Take `CC(C)C[C@H](NC(=O)c1ccc(C(C)(C)C)cc1)C(=O)N1CC[C@@H]2[C@H]1C(=O)CN2C(=O)c1ccccc1`: the inhibition at 100 µM in the data set with Osteoclast came out at 75%. Moreover, the Selectivity ratio in data set [2] was greater than 347; in data set [3], greater than 990; in data set [5], greater than 446.
Turning to `COCc1cccc(C[C@H](O)/C=C/[C@H]2[C@H](O)CC(=O)[C@@H]2CCSCCCC(=O)OC)c1` [RIVENPROST], in [14], the EC50 amounted to 1.6 nM. In addition, in the data set on Mus musculus, the “fold change (FC)” value is on record as 3. In data set [15], this compound had a Ki of 56 nM. For the same compound, the Activity in the data set with Rattus norvegicus [16] was 378 mg/cm3.
Regarding `CC(C)(Cc1ccc2ccccc2c1)NC[C@@H](O)COc1cccc(Cl)c1C#N`, in data set [17], the EC50 stood at 41 nM.
For `COc1ccc([C@H](CC(=O)O)N2CCN(CCCc3ccc4c(n3)NCCC4)C2=O)cn1`, the Activity in the data set with Rhesus monkey is given as 39%; in the data set on Homo sapiens [18], 3.5%; in the data set with Rattus norvegicus [20], 12.8%; with Homo sapiens [23], 2.4%; in the data set on Homo sapiens [24] it was 1.7%; in the data set with Rattus norvegicus [26] it was 8.9%. The Selectivity ratio in [19] turned out to be 125. The CL/F in data set [21] is 6.4 mL/min/kg; in [22], 47 mL/min/kg. In addition, the fraction unbound in the data set filed under Homo sapiens [25] was 0.12. Moreover, the half-life in [27] was 3 h.
`C/C(=C\Cc1c(O)cc2occ(-c3ccc(O)cc3)c(=O)c2c1O)CO` [GLABRISOFLAVONE]: the Activity in the data set on MC3T3-E1 [28] and with MC3T3-E1 [29] was 58% throughout.

Usually IC50 stands for the concentration that gives 50% inhibition. As usually defined, the Cmax is the highest concentration seen after dosing. As a reminder, the AUC is concentration integrated over time. The bioavailability is the share of a dose that reaches the circulation, judged against a reference dose that is usually intravenous. As a reminder, the inhibition is the share of the control response that was lost under treatment. The term EC50 denotes the concentration at which the effect is half-maximal. For orientation: Ki means a measure of affinity in units of concentration, obtained from inhibition or displacement. Usually CL/F stands for the apparent clearance, not corrected for the fraction that reaches the circulation. For orientation: half-life means the time needed for the level to fall by half in the phase considered.

The values are drawn from ChEMBL document CHEMBL1155461, “Emerging targets in osteoporosis disease modification” (J Med Chem, 2010).
